Experimental data as given in publication PMC8976068, “Structural basis to repurpose boron-based proteasome inhibitors Bortezomib and Ixazomib as β-lactamase inhibitors” (Scientific Reports, 2022).
Where two headings read alike, the source gives them in different places.

Legend:
[1] = biological target: T1, CTX-M-14 β-lactamase (Klebsiella pneumoniae, UniProt A0A2S1JJX2); assay: crystal structure ([…] Å, soaking); also purified enzyme inhibition assay, cefotaxime hydrolysis; assay type: biochemical
[2] = biological target: T1, CTX-M-14 β-lactamase; assay: as above; assay type: biochemical; remark: listed apart in the source

T1 sequence (A0A2S1JJX2 entry or part of it): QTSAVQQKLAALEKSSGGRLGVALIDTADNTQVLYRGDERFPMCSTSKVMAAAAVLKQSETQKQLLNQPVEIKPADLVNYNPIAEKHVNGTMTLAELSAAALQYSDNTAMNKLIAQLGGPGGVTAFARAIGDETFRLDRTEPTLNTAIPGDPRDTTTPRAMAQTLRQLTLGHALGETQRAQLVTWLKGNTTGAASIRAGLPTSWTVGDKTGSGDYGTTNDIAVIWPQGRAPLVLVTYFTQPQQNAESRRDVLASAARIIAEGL

| SMILES | IC50 [1] | IC50 [2] |
| --- | --- | --- |
| CC(C)C[C@H](NC(=O)[C@H](Cc1ccccc1)NC(=O)c1cnccn1)B(O)O [Bortezomib] | 67 ± 1.4 µM | – |
| CC(C)C[C@H](NC(=O)CNC(=O)c1cc(Cl)ccc1Cl)B(O)O [Ixazomib] | – | 13 ± 1.2 µM |
